# Results as given in PMC11876601 (Molecular Systems Biology, 2025).
# Read-outs that look alike come from different tables or passages of the source.
# System: p-sites in DNA-damaged AsPC-1 cells
# Experiment: decryptM dose-resolved phosphoproteomics of ATRi in GEM-pre-treated cells
# Type: cell-based, human
# Settings: for EC50: Homo sapiens
# Procedure: Cell culture medium was replaced 24 h after seeding. […] For time point 0, AsPC-1 cells were treated with a vehicle and lysed immediately. The final DMSO concentration in all experiments was 0.2%.
# Briefly, cells were washed twice with PBS and lysed in SDS lysis buffer (2% SDS in 40 mM Tris-HCl, pH 7.6), followed by sonication for 10 min (30 s on/30 s off) using a Bioruptor (Diagenode). For DNA hydrolysis, samples were boiled at 95 °C for 10 min and incubated with 2% trifluoroacetic acid (TFA) for 1 min, before the reaction was quenched using 4% N-methylmorpholine. Lysate was cleared by centrifugation at 11,000 × g for 5 min and protein concentration was determined using the Pierce BCA Protein Assay Kit (Thermo Scientific).
# Using 70% ethanol, samples were then precipitated on beads, followed by washing thrice with 80% ethanol and once with 100% acetonitrile. Subsequently, proteins were reduced and alkylated using 10 mM TCEP, 50 mM chloroacetamide, and 2 mM CaCl2 in 100 mM EPPS/NaOH, pH 8.5 for 1 h at 37 °C, followed by tryptic digestion at 37 °C for 16 h. Peptides were acidified with 1% TFA and desalted on Chromabond HLB plates (30 µm particle size, 10 mg capacity, Machery-Nagel), using 0.1% TFA for equilibration and sample loading, and 0.1% TFA in 70% acetonitrile for peptide elution. Recovered peptides were freeze-dried by vacuum-centrifugation and stored at −20 °C.
# Depending on the experiment, samples were either labeled with TMT-11plex (decryptM), TMT-10plex (non-decryptM, quadruplicates), or TMTpro reagent (time-series; all Thermo Scientific). Therefore, dried peptides were reconstituted in 15 µl 100 mM EPPS, pH 8.5 and each treatment condition was labeled with one channel of the respective TMT reagent (5 µl of 25 µg/µl reagent, Appendix Tables S4–S6). The reaction was incubated for 1 h at 23 °C and subsequently quenched with 0.4% hydroxylamine. Then, samples were pooled, acidified with 1% formic acid, and freeze-dried by vacuum-centrifugation. Labeled peptide pools were desalted on C18 Sep-Pak cartridges (37–55 µm particle size, 50 mg capacity, Waters), using 0.1% formic acid as equilibration solvent, and 0.1% formic acid in 60% acetonitrile was used as elution solvent. Eluted peptides were freeze-dried and stored at −20 °C until further use.
# Basic reversed-phase (bRP) fractionation of peptides was performed on a Vanquish HPLC (Thermo Scientific). In short, dried peptides were reconstituted in 200 µl 25 mM ammonium bicarbonate, pH 8.0 and directly injected onto a Waters BEH130 XBridge C18 column (3.5 µm, 4.6 × 250 mm). […] Using an automated fraction collector, 96 fractions were collected between min 7 and 55 after injection. Fractions were acidified with 1% formic acid and pooled to 48 fractions, before they were freeze-dried and stored at −20 °C.
# Immobilized metal ion affinity chromatography (IMAC) enrichment of phosphorylated peptides was performed on the Bravo automated liquid handling platform using AssayMAP Fe(III)-NTA cartridges (Agilent). In brief, the 48 dried peptide fractions were reconstituted in 0.1% TFA in 80% acetonitrile and further pooled to 12 fractions (200 µl final volume per well). The phosphopeptide enrichment protocol embedded in the Agilent AssayMAP Bravo Protein Sample Prep Workbench v2.0 software was run. Thereby, the cartridges were first primed with 150 μl 0.1% TFA in acetonitrile at 300 μl/min, and equilibrated with 150 μl 0.1% TFA in 80% acetonitrile at 10 μl/min. Then, pooled fractions were loaded at 5 µl/min and further washed three times with 150 μl 0.1% TFA in 80% acetonitrile at 50 μl/min. Enriched peptides were eluted with 60 μl 1% ammonium hydroxide at 5 μl/min.
smiles,measurement,setting,value
CNCc1ccc(-c2cc(-c3nc(-c4ccc(S(=O)(=O)C(C)C)cc4)cnc3N)on2)cc1 [Berzosertib],Log2 PTM response (GEM+ATRi vs. GEM),AASDHPPT-pS258,-2
same,Log2 PTM response (GEM+ATRi vs. GEM),BRCA1-pS1239,-1.2
same,Log2 PTM response (GEM+ATRi vs. GEM),BRD8-pS621,-2.5
same,Log2 PTM response (GEM+ATRi vs. GEM),CDKN2AIP-pS198,-2
same,Log2 PTM response (GEM+ATRi vs. GEM),CHEK1-pS317,-2.8
same,Log2 PTM response (GEM+ATRi vs. GEM),CHEK1-pS468,-2.9
same,Log2 PTM response (GEM+ATRi vs. GEM),DHX9-pS321,-2.3
same,Log2 PTM response (GEM+ATRi vs. GEM),EXO1-pS714,-2.7
same,Log2 PTM response (GEM+ATRi vs. GEM),FANCD2-pS319,-2.6
same,Log2 PTM response (GEM+ATRi vs. GEM),HDGF-pS103,-2.4
same,Log2 PTM response (GEM+ATRi vs. GEM),HMGA1-pS9,-3
same,Log2 PTM response (GEM+ATRi vs. GEM),HMGA1-pS36;S44,-1.4
same,Log2 PTM response (GEM+ATRi vs. GEM),HMGA1-pS44,-2.9
same,Log2 PTM response (GEM+ATRi vs. GEM),HSPA4-pS552,-2.1
same,Log2 PTM response (GEM+ATRi vs. GEM),HTATSF1-pS481,-2
same,EC50,"ASPC1, read-out: EC50 of the majority of pSQ/pTQ sites",~100 nM
same,EC50,"ASPC1, read-out: pEC50 of the majority of pSQ/pTQ sites (converted)",~100 nM
same,EC50,"ASPC1, p-site dose-response in GEM-pre-treated cells, read-out: EC50, PPM1G S201",61.6 nM
same,EC50,"ASPC1, p-site dose-response in GEM-pre-treated cells, read-out: EC50, RALY S176",124 nM
same,EC50,"ASPC1, p-site dose-response in GEM-pre-treated cells, read-out: pEC50, PPM1G S201 (converted)",61.7 nM
same,EC50,"ASPC1, p-site dose-response in GEM-pre-treated cells, read-out: pEC50, RALY S176 (converted)",126 nM
same,EC50,"ASPC1, read-out: median EC50 across all drug-regulated pSQ/pTQ-sites",188 nM
same,Log2 PTM response (GEM+ATRi vs. GEM),LRRC42-pS385,-3.3
same,Log2 PTM response (GEM+ATRi vs. GEM),NBN-pS397,-1.8
same,Log2 PTM response (GEM+ATRi vs. GEM),NBN-pS615,-0.9
same,Log2 PTM response (GEM+ATRi vs. GEM),NSUN5-pS432,-3.5
same,Log2 PTM response (GEM+ATRi vs. GEM),PELP1-pS1033,-1.4
same,Log2 PTM response (GEM+ATRi vs. GEM),PHF14-pS294,-1.9
same,Log2 PTM response (GEM+ATRi vs. GEM),PNISR-pS706,-2.2
same,Log2 PTM response (GEM+ATRi vs. GEM),PPM1G-pS201,-3.5
same,Log2 PTM response (GEM+ATRi vs. GEM),PPP6R3-pS825,-1.4
same,Log2 PTM response (GEM+ATRi vs. GEM),PSMD4-pS266,-1.6
same,Log2 PTM response (GEM+ATRi vs. GEM),RAD18-pS368,-1
same,Log2 PTM response (GEM+ATRi vs. GEM),RIF1-pS1873,-2.2
same,Log2 PTM response (GEM+ATRi vs. GEM),SNRPA-pS115,-1.2
same,Log2 PTM response (GEM+ATRi vs. GEM),TCEA1-pS100;S97,-1
same,Log2 PTM response (GEM+ATRi vs. GEM),TCEB3-pS251,-2.1
same,Log2 PTM response (GEM+ATRi vs. GEM),TOPBP1-pS1504,-1.9
same,Log2 PTM response (GEM+ATRi vs. GEM),TSEN34-pS136,-1.2
same,Log2 PTM response (GEM+ATRi vs. GEM),UHRF1-pS393,-2.3
same,Log2 PTM response (GEM+ATRi vs. GEM),UIMC1-pS171,-1.5
same,Log2 PTM response (GEM+ATRi vs. GEM),ZC3H14-pS135,-1.5
same,"ATRi Regulation (Curve), PPM1G S201",classified by CurveCurator,down
same,"ATRi Regulation (Curve), RALY S176",classified by CurveCurator,down
same,PTM response (norm. to 1 µM GEM),"source data 4B (p-site not named), 1 µM GEM + ATRi 1 nM",1.08
same,PTM response (norm. to 1 µM GEM),"source data 4B (p-site not named), 1 µM GEM + ATRi 3 nM",1.06
same,PTM response (norm. to 1 µM GEM),"source data 4B (p-site not named), 1 µM GEM + ATRi 10 nM",0.94
same,PTM response (norm. to 1 µM GEM),"source data 4B (p-site not named), 1 µM GEM + ATRi 30 nM",1.20
same,PTM response (norm. to 1 µM GEM),"source data 4B (p-site not named), 1 µM GEM + ATRi 100 nM",0.78
same,PTM response (norm. to 1 µM GEM),"source data 4B (p-site not named), 1 µM GEM + ATRi 300 nM",0.40
same,PTM response (norm. to 1 µM GEM),"source data 4B (p-site not named), 1 µM GEM + ATRi 1000 nM",0.20
same,PTM response (norm. to 1 µM GEM),"source data 4B (p-site not named), 1 µM GEM + ATRi 3000 nM",0.14
same,PTM response (norm. to 1 µM GEM),"source data 4B (p-site not named), 1 µM GEM + ATRi 10000 nM",0.15
same,PTM response (norm. to 1 µM GEM),"source data 5B (p-site not named), 1 µM GEM + ATRi 1 nM",0.81
same,PTM response (norm. to 1 µM GEM),"source data 5B (p-site not named), 1 µM GEM + ATRi 3 nM",0.96
same,PTM response (norm. to 1 µM GEM),"source data 5B (p-site not named), 1 µM GEM + ATRi 10 nM",0.69
same,PTM response (norm. to 1 µM GEM),"source data 5B (p-site not named), 1 µM GEM + ATRi 30 nM",0.83
same,PTM response (norm. to 1 µM GEM),"source data 5B (p-site not named), 1 µM GEM + ATRi 100 nM",0.51
same,PTM response (norm. to 1 µM GEM),"source data 5B (p-site not named), 1 µM GEM + ATRi 300 nM",0.19
same,PTM response (norm. to 1 µM GEM),"source data 5B (p-site not named), 1 µM GEM + ATRi 1000 nM",0.12
same,PTM response (norm. to 1 µM GEM),"source data 5B (p-site not named), 1 µM GEM + ATRi 3000 nM",0.13
same,PTM response (norm. to 1 µM GEM),"source data 5B (p-site not named), 1 µM GEM + ATRi 10000 nM",0.12
